From patent publication US8178506B2, “Oligomeric compounds and compositions for use in modulation of small non-coding RNAs” (Regulus Therapeutics Inc., priority 2003, dated 2012)
In the oligonucleotide strings, read from the 5' end, every base follows the letter of its sugar. An asterisk marks phosphorothioate; unmarked linkages are phosphodiester. Other units and linkages are bracketed, terminal groups are in braces. A string of capitals states the bases alone. e = 2'-O-(2-methoxyethyl) (MOE); [5mC] = 5-methylcytosine; d = 2'-deoxy (DNA)

Tests used:
[1] = tested on: BJ, B16-F10, T47D, T47Dp53 and HeLa cells; test: Cell cycle assay (propidium iodide flow cytometry), cell line panel; assay type: cell-based; details: for G1 (percentage of cells in phase of the cell cycle) / G2/M (percentage of cells in phase of the cell cycle) / S (percentage of cells in phase of the cell cycle) / SubG1 (percentage of cells in phase of the cell cycle) / aneuploid (percentage of cells): 150 nM oligomeric compound, 4.5 μg/ml LIPOFECTIN, after 72 hours, propidium iodide flow cytometry
T47D cells = test: Caspase-3 activity assay (apoptosis) in T47D cells; details: T47D cells, 200 nM, 48 hours, relative to untreated control
IL-12 mRNA = IL-12 mRNA in LPS-activated primary murine macrophages; assay type: cell-based, mouse; details: normalized to LPS-treated cells without oligomeric compound; for IL-12 mRNA expression, −IFN % UTC: 300 nM oligomeric compound and LPS, no IFN-gamma pretreatment, single experiment; for IL-12 mRNA expression, +IFN % UTC: 300 nM oligomeric compound, stimulation with IFN-gamma and LPS, average of 2 experiments
Description: To investigate the role of miRNAs in the immune response, oligomeric compounds of the present invention targeting miRNAs were tested for their effects upon lipopolysaccharide (LPS)-activated primary murine macrophages. Macrophages participate in the immune response, for example, in the recognition and phagocytosis of microorganisms, including bacteria. Interferon-gamma (IFN-gamma) released by helper T cells is one type of signal required for macrophage activation, and LPS can serve as an additional stimulus. LPS is a component of the gram-negative bacterial cell wall and acts as an agonist for toll-like receptor 4 (TLR4), the primary LPS receptor expressed by macrophages. The proinflammatory cytokines interleukin-12 (IL-12) and interleukin-6 (IL-6) are induced by LPS treatment of macrophages, thus the expression of the mRNAs encoding these cytokines was used to evaluate the response of macrophages to LPS following treatment with oligomeric compounds targeting miRNAs.
Macrophages were isolated as follows. Female C57B1/6 mice (Charles River Laboratories, Wilmington, Mass.) were injected intraperitoneally with 1 ml 3% thioglycollate broth (Sigma-Aldrich, St. Louis, Mo.), and peritoneal macrophage cells were isolated by peritoneal lavage 4 days later. The cells were plated in 96-well plates at 40,000 cells/well for one hour in serum-free RPMI adjusted to contain 10 mM HEPES (Invitrogen Life Technologies, Carlsbad, Calif.), allowed to adhere, then non-adherent cells were washed away and the media was replaced with RPMI containing 10 mM HEPES, 10% FBS and penicillin/streptomycin (“complete” RPMI; Invitrogen Life Technologies, Carlsbad, Calif.).
Oligomeric compounds were introduced into the cells using the non-liposomal transfection reagent FuGENE 6 Transfection Reagent (Roche Diagnostics Corp., Indianapolis, Ind.). Oligomeric compound was mixed with FuGENE 6 in 1 mL of serum-free RPMI to achieve a concentration of 10 μL FuGENE per 1000 nM oligomeric compound. The oligomeric compound/FuGENE complex was allowed to form at room temperature for 20 minutes. This mixture was diluted to the desired concentration of oligomeric compound by the addition of the appropriate volume of complete RPMI. The final ratio of FuGENE 6 to oligomeric compound was 1 μL of FuGENE 6 per 100 nM oligomeric compound. A volume of 100 μL of oligomeric compound/FuGENE/RPMI was added to each well of the 96-well plate in which the macrophages were cultured. Each oligomeric compound treatment was repeated in triplicate.
Following oligomeric compound treatment, cells were stimultated with LPS. Cells were cultured in the presence of the transfection complex for approximately 24 to 28 hours at 37° C. and 5% CO2, after which the medium containing the transfection complex was removed from the cells, and complete RPMI containing 100 ng/mL LPS (Sigma-Aldrich Corp., St. Louis, Mo.) was added to the cells for a period of approximately 24 hours. Control samples included (1) cells receiving no oligomeric compound, stimulated with LPS and (2) cells receiving neither oligomeric compound nor LPS treatment.
In another embodiment, following oligomeric compound treatment, cells were first activated by IFN-gamma, to amplify the response to LPS. Cells were cultured in the presence of the transfection complex for approximately 24 hours at 37° C. and 5% CO2, at which point the medium containing the transfection complex was removed from the cells, and complete RPMI containing 100 ng/mL recombinant mouse IFN-gamma (R&D Systems, Minneapolis, Minn.) was added to the cells. After the 4 hour treatment with INF-gamma, cells were treated with 100 ng/mL LPS for approximately 24 hours. Control samples included (1) cells receiving no oligomeric compound, stimulated with LPS and (2) cells receiving neither oligomeric compound nor LPS treatment. […]

adipocytes = test: Triglyceride accumulation assay in adipocytes; assay type: cell-based, human
aP2 = aP2 mRNA expression in adipocytes (real-time PCR); assay type: cell-based, human; details: for aP2 mRNA: differentiating adipocytes transfected with oligomeric compound, Table 75; for AP2 mRNA: differentiating adipocytes, control = treatment with ISIS 342673
HSL = HSL mRNA expression in adipocytes (real-time PCR); assay type: cell-based, human
Glut4 = Glut4 mRNA expression in adipocytes (real-time PCR); assay type: cell-based, human
PPARγ = PPARγ mRNA expression in adipocytes (real-time PCR); assay type: cell-based, human
HeLa cells = test: Cell cycle assay in HeLa cells; assay type: cell-based, human; details: HeLa cells, 150 nM oligomeric compound
[2] = differentiating adipocytes transfected with oligomeric compound, Table 75
[3] = 24 hours, relative to untreated control (UTC = 100)
[4] = 48 hours after treatment, relative to untreated control (UTC=100)
[5] = Table 17, differentiating adipocytes, control = treatment with ISIS 342673
[6] = Table 18, differentiating adipocytes, control = treatment with ISIS 342673

Substance: 328364 (eT*e[5mC]*eT*eT*eA*dA*dG*dT*d[5mC]*dA*d[5mC]*dA*dA*dA*dT*e[5mC]*eA*eG*e[5mC]*eA) [compound 328364]
- G1 (percentage of cells in phase of the cell cycle) [1]: 61.5%
- G2/M (percentage of cells in phase of the cell cycle) [1]: 14.3%
- S (percentage of cells in phase of the cell cycle) [1]: 24.2%
- SubG1 (percentage of cells in phase of the cell cycle) [1]: 1.9%
- aneuploid (percentage of cells) [1]: 15.1%

Substance: 328371 (eT*e[5mC]*e[5mC]*eA*eT*dA*dG*d[5mC]*dT*dT*dA*dG*d[5mC]*dA*dG*eG*eT*e[5mC]*e[5mC]*eA; antisense) [compound 328371]
- Fold Increase over UTC (caspase activity) (T47D cells): 1.2

Substance: 328372 (eT*eT*eT*eG*eA*dT*dA*dG*dT*dT*dT*dA*dG*dA*d[5mC]*eA*e[5mC]*eA*eA*eA; antisense) [compound 328372]
- Fold Increase over UTC (caspase activity) (T47D cells): 1.0

Substance: 340345 (antisense GGAACUUAGCCACUGUGAA; all 2'-MOE, all phosphorothioate, methylation of C and T or U not given here) [compound 340345]
- IL-12 mRNA expression, −IFN % UTC (IL-12 mRNA): 104 % UTC
- IL-12 mRNA expression, +IFN % UTC (IL-12 mRNA): 78 % UTC

Substance: 340348 (antisense CTACCTGCACGAACAGCACTTT; all 2'-MOE, all phosphorothioate, methylation of C not given here) [compound 340348]
- TG (triglyceride accumulation) (adipocytes; [2]): 48 percentage of untreated control (UTC)
- aP2 mRNA (aP2): 68 percentage of untreated control (UTC)
- HSL mRNA (HSL; [2]): 57 percentage of untreated control (UTC)
- GLUT4 mRNA (Glut4; [2]): 52 percentage of untreated control (UTC)
- PPAR gamma mRNA (PPARγ; [2]): 78 percentage of untreated control (UTC)
- G1 (percentage of cells in phase of the cell cycle) [1]: 53.9%
- G2/M (percentage of cells in phase of the cell cycle) [1]: 14.3%
- S (percentage of cells in phase of the cell cycle) [1]: 31.8%
- SubG1 (percentage of cells in phase of the cell cycle) [1]: 14.1%
- aneuploid (percentage of cells) [1]: 12.3%

Substance: 340365 (antisense TACTTTATATAGAACACAAG; sugars from the 5' end e5 d10 e5, all phosphorothioate, methylation of C not given here) [compound 340365]
- G1 (percentage of cells in phase of the cell cycle) [1]: 55.2%
- G2/M (percentage of cells in phase of the cell cycle) [1]: 15.4%
- S (percentage of cells in phase of the cell cycle) [1]: 29.4%
- SubG1 (percentage of cells in phase of the cell cycle) [1]: 4.3%
- aneuploid (percentage of cells) [1]: 18.3%
- % cells aneuploid (HeLa cells; [3]): 84%
- % cells in cell cycle phase G1 (HeLa cells; [3]): 125%
- % cells in cell cycle phase G2/M (HeLa cells; [3]): 114%
- % cells in cell cycle phase S (HeLa cells; [3]): 71%
- % cells in cell cycle phase subG1 (HeLa cells; [3]): 109%
- % cells in cell cycle phase: G1 (HeLa cells; [4]): 99%
- % cells in cell cycle phase: G2/M (HeLa cells; [4]): 109%
- % cells in cell cycle phase: S (HeLa cells; [4]): 94%
- % cells in cell cycle phase: aneuploid (HeLa cells; [4]): 129%
- % cells in cell cycle phase: subG1 (HeLa cells; [4]): 71%

Substance: 341786 (antisense CGCAAGGUCGGUUCUACGGGUG; all 2'-MOE, all phosphorothioate, methylation of C and T or U not given here) [compound 341786]
- IL-12 mRNA expression, −IFN % UTC (IL-12 mRNA): 266 % UTC
- IL-12 mRNA expression, +IFN % UTC (IL-12 mRNA): 99 % UTC

Substance: 341790 (antisense CGAAGGCAACACGGAUAACCUA; all 2'-MOE, all phosphorothioate, methylation of C and T or U not given here) [compound 341790]
- IL-12 mRNA expression, −IFN % UTC (IL-12 mRNA): 318 % UTC
- IL-12 mRNA expression, +IFN % UTC (IL-12 mRNA): 84 % UTC

Substance: 341793 (antisense CCAUAAAGUAGGAAACACUACA; all 2'-MOE, all phosphorothioate, methylation of C and T or U not given here) [compound 341793]
- IL-12 mRNA expression, −IFN % UTC (IL-12 mRNA): 202 % UTC
- IL-12 mRNA expression, +IFN % UTC (IL-12 mRNA): 147 % UTC

Substance: 341811 (antisense UCCACAUGGAGUUGCUGUUACA; all 2'-MOE, all phosphorothioate, methylation of C and T or U not given here) [compound 341811]
- IL-12 mRNA expression, −IFN % UTC (IL-12 mRNA): 154 % UTC
- IL-12 mRNA expression, +IFN % UTC (IL-12 mRNA): 88 % UTC

Substance: 341815 (antisense CAUCGUUACCAGACAGUGUUA; all 2'-MOE, all phosphorothioate, methylation of C and T or U not given here) [compound 341815]
- IL-12 mRNA expression, −IFN % UTC (IL-12 mRNA): 190 % UTC
- IL-12 mRNA expression, +IFN % UTC (IL-12 mRNA): 157 % UTC

Substance: 348127 (GCAGAACUUAGCCACUGUGAA; all 2'-MOE, all phosphorothioate, methylation of C and T or U not given here) [compound 348127]
- TG (triglyceride accumulation) (adipocytes; [2]): 155 percentage of untreated control (UTC)
- aP2 mRNA (aP2): 185 percentage of untreated control (UTC)
- HSL mRNA (HSL; [2]): 150 percentage of untreated control (UTC)
- GLUT4 mRNA (Glut4; [2]): 201 percentage of untreated control (UTC)
- PPAR gamma mRNA (PPARγ; [2]): 130 percentage of untreated control (UTC)

Substance: AGCCTATCCTGGATTACTTGAA (anti-miR; chemistry not fully specified) [ISIS 327907, uniform 2′-MOE PS; targets mir-26a]
- percentage of aneuploid cells ([1]; 150 nM, 72 hours (Table 29)): higher than average percentages of aneuploid cells
- percentage of cells with hypodiploid DNA content (subG1) ([1]; 150 nM, 72 hours (Table 29)): increased percentage of cells with hypodiploid DNA content

Substance: CCGAGCTCTCTTATCAACAG (e[5mC]*e[5mC]*eG*eA*eG*d[5mC]*dT*d[5mC]*dT*d[5mC]*dT*dT*dA*dT*d[5mC]*eA*eA*e[5mC]*eA*eG) [ISIS 183891, 5-10-5 gapmer targeting kinesin-like 1 (Eg5), positive control, reference compound]
- cell cycle delay or arrest in all cell lines ([1]; BJ 200 nM, T47D, T47Dp53, HeLa, B16 150 nM, 48 hours): delay or arrest in G2/M phase

Substance: TACTTTATATAGAACACAAG (chemistry not given here) [ISIS 340365, 5-10-5 gapmer PS; targets mir-92-2]
- percentage of aneuploid cells ([1]; 150 nM, 72 hours (Table 29)): higher than average percentages of aneuploid cells

Substance: TCATAGCCCTGTACAATGCTGCT (anti-miR; chemistry not fully specified) [ISIS 327906, uniform 2′-MOE PS; targets mir-103-1]
- percentage of cells in the G2/M phase ([1]; 150 nM, 72 hours (Table 29)): increased percentage of cells in the G2/M phase
- percentage of cells with hypodiploid DNA content (subG1) ([1]; 150 nM, 72 hours (Table 29)): increased percentage of cells with hypodiploid DNA content

Substance: TNF-alpha
- TG (triglyceride accumulation) (adipocytes; [5]): 10.0 percentage of control
- TG (triglyceride accumulation) (adipocytes; [6]): 14.5 percentage of control
- AP2 mRNA (aP2; Table 17): 5.5 percentage of control
- AP2 mRNA (aP2; Table 18): 9.6 percentage of control
- HSL mRNA (HSL; [5]): 0.7 percentage of control
- HSL mRNA (HSL; [6]): 3.1 percentage of control
- GLUT4 mRNA (Glut4; [5]): 0.5 percentage of control
- GLUT4 mRNA (Glut4; [6]): 1.9 percentage of control
- PPAR gamma mRNA (PPARγ; [5]): 18.8 percentage of control
- PPAR gamma mRNA (PPARγ; [6]): 27.9 percentage of control
